Reference: patent US9107879B1, “Methods of increasing the cytotoxicity of chemotherapeutic agents with multisubstrate inhibitors of histone, protein-lys, polyamine acetylation, and polyamine metabolism” (Vanderbilt University, priority 2010, dated 2015)

What was measured:
[1] = system: DU145 prostate cancer cells; type: cell-based; conditions: camptothecin 5 nM; 2a 10 μM
Procedure: Cells were plated in 96-well plates at 2000 cells per well and treated with the indicated doses of spd-3a. Cell viability was measured by the MTS assay 3 days later.

[2] = system: normal GT41F human skin fibroblast cells; assay: [3H]-thymidine incorporation DNA synthesis assay; type: cell-based; conditions: 1a 50 μM; camptothecin 5 nM 18 hours
From the text: Cells were either labeled immediately before treatment (starting DNA synthesis rate), or subjected to the indicated treatments and then pulsed on successive days until day 4. DNA synthesis is represented as the percent of starting DNA synthesis rate.
The present inventors used a 96-well viability assays as described in Saadatmandi et al (Cancer Gene Therapy (2002) 9:930-9) to examine the effect of the spermidine-CoA inhibitor disclosed previously on DNA synthesis in normal GT41F human skin fibroblast cells, as well as its combined effect with camptothecin. GT41F cells were plated in 96-well plates at 3000 cells per well. […] Following the 6-hour labeling, cells were harvested and incorporation of [^3H]-thymidine was determined by scintillation counting.

γ-H2A.X in H358 cells = assay: double strand break / gamma-H2A.X Western and co-immunoprecipitation; type: cell-based; conditions: 18 hours post-start; 1a 50 μM, 5FU 2 μM, cisplatin 2 μM, camptothecin 5 nM
Procedure: Also shown are controls for no treatment (“c” minus 1a) or treatment with 1a only (“c” plus 1a). Each lane represents 60 μg protein. […] Each lane represents 60 μg protein.
To measure DSB repair, cells were incubated for 1 hour with 10 μM camptothecin to induce DSBs, followed by incubation in the presence or absence of 50 μM 1a. At fixed times, histones were prepared by extraction in 0.2M H2SO4 as described previously and 50 μg extract was analyzed by 12% SDS-PAGE followed Western analysis as described previously, using rabbit polyclonal anti-γ-H2A.X [phosphor ser 139] (Novus Biologicals, Littleton, Colo.) or anti-H3 (Upstate Biotechnology, Inc, Lake Placid, N.Y.). Band intensities were quantitated digitally. To study acetylation of γ-H2A.X, we carried out co-immunoprecipitation analysis using 50 μg extract protein in immunoprecipitation buffer (10 mM sodium phosphate pH 7, 0.15 M NaCl, 0.1% SDS, 1% NP40, 1% sodium deoxycholate, aprotinin, 1 mM PMSF, complete protease inhibitors (Roche) using immobilized anti-acetyl-lysine (Millipore, Temecula, Calif.) in the immunoprecipitation step. The immunoprecipitated material was then analyzed as for Western analysis using anti γ-H2A.X.
Double strand breaks (DSBs) can be formed by a variety of DNA damaging agents, including camptothecin, cisplatin, 5FU, and UVC radiation (Avemann K, et al., 1988, Mol Cell Biol, 8: 3026-34; Bogdanov K V, et al. 1997, Br J Haematol, 98:869-72; Pavon M A, et al., Int J Cancer, 2008, 123:1068-79) implying that DSB repair may play a role in reducing their cellular toxicity. To examine how 1a treatment affects DSB repair in H358 cells we made use of the fact that the histone variant, H2A.X becomes phosphorylated at sites of double strand breaks (denoted γ-H2A.X), and can be detected by immunoblot analysis of acid extracted cells (Rogaku E P, et al., 1999, J Cell Biol, 146:905-16). […] Total H3 levels and H2A.X levels (control) are unaffected by these treatments (FIG. 4B). […]

[3] = system: endogenous HATs associated with solubilized chromatin; conditions: literature (Bandyopadhyay et al 2009; Parello et al. 1990); cited from earlier work
H358 lung cancer cells = assay: [3H]-thymidine incorporation DNA synthesis assay; type: cell-based; conditions: Homo sapiens, NCI-H358; Example 1: 50 μM 1a (continuous) + 5 nM camptothecin (24 h); 48 hours post treatment; read-out: DNA synthesis rate, % of control rate

SMILES: CC[C@@]1(O)C(=O)OCc2c1cc1n(c2=O)Cc2cc3ccccc3nc2-1 [camptothecin]
- effect on cell viability, single agent [1]: minimal effects
- effect on incorporation of [3H]-thymidine, single agent [2]: virtually no effect
- γ-H2A.X level, single agent (γ-H2A.X in H358 cells): weakly detectable

SMILES: CC(=O)NCCSCC(=O)NCCCNCCCCN [3a]
- inhibitory activity against endogenous HAT [3]: lower inhibitory effect than Spd-2a

SMILES: CC(C)(COP(=O)(O)OP(=O)(O)OC[C@H]1O[C@@H](n2cnc3c(N)ncnc32)[C@H](O)[C@@H]1OP(=O)(O)O)[C@@H](O)C(=O)NCCC(=O)NCCSCC(=O)NCCCNCCCCN [1a, spermidine[N1]-CoA]
- activity at 50 µM (H358 lung cancer cells): ~10%
